Measurements published in PMC7357490, “Ancestral Resurrection and Directed Evolution of Fungal Mesozoic Laccases” (Applied and Environmental Microbiology, 2020).
Like-named read-outs stand apart in the source and are kept apart here.

Assays:
[1] = tested on: LacAnc100; assay: spectrophotometric steady-state kinetics, […] nm; type: biochemical, synthetic construct; details: room temperature; 100 mM sodium phosphate/citrate pH 5.0; air O2 as co-substrate
[2] = molecular target: T1, OB-1 (basidiomycete PM1, UniProt Q12571, V183A/H229Y/S245G/A260P/D302E/S447N/A482T, form not given); assay: spectrophotometric steady-state kinetics, […] nm; type: biochemical; details: room temperature; 100 mM sodium phosphate/citrate pH 5.0; air O2 as co-substrate
T1 construct: N-terminal extension from leader processing (EAEA site) possible

[3] = tested on: LacAnc98; assay: spectrophotometric steady-state kinetics, […] nm; type: biochemical, synthetic construct; details: room temperature; 100 mM sodium phosphate/citrate pH 5.0; air O2 as co-substrate
[4] = tested on: LacAnc98; assay: spectrophotometric steady-state kinetics, […] nm; type: biochemical, synthetic construct; details: room temperature; 100 mM sodium phosphate/citrate pH 5.0; air O2 as co-substrate; remark: listed apart in the source
[5] = molecular target: T1, OB-1; assay: spectrophotometric steady-state kinetics, […] nm; type: biochemical; details: room temperature; 100 mM sodium phosphate/citrate pH 5.0; air O2 as co-substrate; remark: listed apart in the source
[6] = tested on: LacAnc100; assay: spectrophotometric steady-state kinetics, […] nm; type: biochemical, synthetic construct; details: room temperature; 100 mM sodium phosphate/citrate pH 5.0; air O2 as co-substrate; remark: listed apart in the source
[7] = tested on: LacAnc100; details: read-out: LacAnc100; room temperature; 100 mM sodium phosphate/citrate pH 4.0; air O2 as co-substrate
[8] = tested on: LacAnc98; details: read-out: LacAnc98; room temperature; 100 mM sodium phosphate/citrate pH 4.0; air O2 as co-substrate
[9] = tested on: LacAnc98; assay: spectrophotometric steady-state kinetics, […] nm; type: biochemical, synthetic construct; details: room temperature; 100 mM sodium phosphate/citrate pH 5.0; air O2 as co-substrate; remark: listed apart in the source
[10] = molecular target: T1, OB-1; assay: spectrophotometric steady-state kinetics, […] nm; type: biochemical; details: room temperature; 100 mM sodium phosphate/citrate pH 5.0; air O2 as co-substrate; remark: listed apart in the source
[11] = tested on: LacAnc100; assay: spectrophotometric steady-state kinetics, […] nm; type: biochemical, synthetic construct; details: room temperature; 100 mM sodium phosphate/citrate pH 5.0; air O2 as co-substrate; remark: listed apart in the source

T1 sequence (Q12571 entry or part of it V183A/H229Y/S245G/A260P/D302E/S447N/A482T, form open): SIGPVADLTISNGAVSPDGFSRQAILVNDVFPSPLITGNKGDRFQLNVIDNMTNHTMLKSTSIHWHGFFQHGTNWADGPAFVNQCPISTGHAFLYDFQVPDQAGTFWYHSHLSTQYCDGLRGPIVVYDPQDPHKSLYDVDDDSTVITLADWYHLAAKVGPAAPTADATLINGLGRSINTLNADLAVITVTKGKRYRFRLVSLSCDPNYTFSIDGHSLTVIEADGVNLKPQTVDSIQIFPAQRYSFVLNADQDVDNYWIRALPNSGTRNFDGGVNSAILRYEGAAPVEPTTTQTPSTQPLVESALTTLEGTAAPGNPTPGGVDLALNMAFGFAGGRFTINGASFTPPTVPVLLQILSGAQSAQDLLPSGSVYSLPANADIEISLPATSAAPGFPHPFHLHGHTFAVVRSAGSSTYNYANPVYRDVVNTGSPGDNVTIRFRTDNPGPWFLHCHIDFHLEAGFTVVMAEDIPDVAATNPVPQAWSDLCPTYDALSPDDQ

COc1cc(/C=C/C(=O)O)cc(OC)c1O [Sinapic acid]
Km [1]: 330 ± 70 µM
Km [2]: 320 ± 20 µM
Km [3]: 230 ± 40 µM

COc1cccc(OC)c1O [DMP]
Km [4]: 420 ± 20 µM
Km [5]: 150 ± 10 µM
Km [6]: 500 ± 20 µM

CCn1c(=NN=c2sc3cc(S(=O)(=O)O)ccc3n2CC)sc2cc(S(=O)(=O)O)ccc21 [ABTS]
Km [7]: 60 ± 1 µM
Km [8]: 69 ± 2 µM

COc1ccccc1O [Guaiacol]
Km [9]: 8700 ± 300 µM
Km [10]: 2600 ± 400 µM
Km [11]: 6700 ± 700 µM
